These are literature values, as cited in patent US20120316496A1, “USE OF COMPOSITIONS TO COAT CATHETER BALLOONS AND COATED CATHETER BALLOONS” (priority 2009, published 2012).

For the series the following is noted: at 20° C.
As a reminder, the vapor pressure is the pressure of vapour in equilibrium with the condensed phase. On to `C[S+](C)[O-]` [DMSO, dimethyl sulfoxide], for which the vapor pressure is listed as 250 Pa. With `OCCO` [Ethylene glycol], the vapor pressure is 5,3 Pa.

For the compound `CCOC(C)=O` [Ethyl acetate], the vapor pressure is listed as 9700 Pa. With `CC12CCC(CC1=O)C2(C)C` (stereo not shown) [Camphor], the vapor pressure was 20 Pa.
